Some results are limits rather than exact numbers.

T1 sequence (Q96SW2 whole entry): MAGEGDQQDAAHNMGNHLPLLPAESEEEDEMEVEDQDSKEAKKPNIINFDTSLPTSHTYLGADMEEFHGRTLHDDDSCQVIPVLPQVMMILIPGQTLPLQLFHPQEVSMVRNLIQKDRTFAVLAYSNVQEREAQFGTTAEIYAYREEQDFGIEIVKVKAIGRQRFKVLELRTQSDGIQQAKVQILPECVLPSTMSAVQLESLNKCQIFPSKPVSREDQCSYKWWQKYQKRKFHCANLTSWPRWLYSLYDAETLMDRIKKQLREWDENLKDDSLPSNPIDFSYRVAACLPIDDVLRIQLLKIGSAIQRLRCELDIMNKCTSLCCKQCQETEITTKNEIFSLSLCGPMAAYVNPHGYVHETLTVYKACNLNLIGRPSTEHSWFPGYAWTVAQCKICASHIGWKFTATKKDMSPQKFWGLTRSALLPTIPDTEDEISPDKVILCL

The first assay has as its target T1, Full length wild-type cereblon CRBN (Homo sapiens, UniProt Q96SW2).
T1 construct: Full length wild-type cereblon CRBN (80.0 nM, 10 μL) was incubated in assay buffer
The assay is described as follows: Fluorescence polarization (FP) assay indicating cereblon binding. The settings on record: Table 3B; read-out: rFP IC50. As to the method: Compound activity was monitored in a fluorescence polarization (FP) homogeneous assay using 1-[5-({2-[2-(2-{[2-(2,6-dioxopiperidin-3-yl)-1,3-dioxo-2,3-dihydro-1H-isoindol-4-yl]oxy}acetamido)ethoxy]ethyl}carbamoyl)pentyl]-3,3-dimethyl-2-[(1E,3E)-5-[(2E)-1,3,3-trimethyl-5-sulfo-2,3-dihydro-1H-indol-2-ylidene]penta-1,3-dien-1-yl]-3H-indol-1-ium-5-sulfonate as a fluorescent probe. Unless otherwise stated, all reagents were purchased from Sigma Aldrich. Enzymatic reactions were conducted in Perkin-Elmer Black 384 well ProxiPlate Plus (catalogue no. 6008269) in 10 μL total volume. Full length wild-type cereblon CRBN (80.0 nM, 10 μL) was incubated in assay buffer containing 20 mM HEPES (pH 8.0), […], 0.5 mM TCEP and 0.05% Tween 20 in the presence or absence of compound (300 nL). Inhibitors were stored as 10 mM DMSO stocks in an inert environment (low humidity, dark, low oxygen, room temperature) using the Storage Pod System. Compounds and DMSO were dispensed using the Echo E5XX (Labcyte Inc. USA) to give concentrations from 300 to 0.937 or 3000 to 9.3 nM in a 12 data point curve. […] Following incubation at room temperature for 30 min, the assay was initiated by dispensing the probe to a final concentration of 5 nM (2.5 nL of a 20 μM stock) using the Echo E5XX. FP was measured after a period of 12 hours using a Pherastar plate reader (BMG Labtech, Germany) exciting at 590 nm and measuring the amount of parallel and perpendicular light at 675 nm. The FP signal was subsequently normalized to the no-compound control (i.e., DMSO). Analysis and IC50 values were derived using Dotmatics (Dotmatics UK) software.
For the compound `COc1cc(COC(=O)Nc2cccc(OC3CC3)c2)cc2c1CN(C1CCC(=O)NC1=O)C2=O` (centres unmarked) [Compound 558], the IC50 is at most 600 nM.

With `COc1cc(COC(=O)Nc2cnc(-c3ccccc3)c(C)c2)cc2c1CN(C1CCC(=O)NC1=O)C2=O` (centres unmarked) [Compound 559], the IC50 was at most 600 nM.

Consider `COc1cc(COC(=O)Nc2ccc(N3CCCCC3C)nc2)cc2c1CN(C1CCC(=O)NC1=O)C2=O` (centres unmarked) [Compound 538], for which the IC50 was at most 600 nM.

In the case of `COc1cc(COC(=O)Nc2ccc(C3(C)CC3)cc2)cc2c1CN(C1CCC(=O)NC1=O)C2=O` (centres unmarked) [Compound 540], the IC50 is at most 600 nM.

`Cc1ccc(NC(=O)OCc2cc(Cl)c3c(c2)C(=O)N(C2CCC(=O)NC2=O)C3)cc1Cl` (centres unmarked) [Compound 504]: the IC50 is above 1900 nM.

For `O=C1CCC(N2Cc3c(F)cc(COC(=O)Nc4cc(Cl)cc(OC(F)F)c4)cc3C2=O)C(=O)N1` (centres unmarked) [Compound 534], the IC50 was above 1900 nM.

Turning to `Cc1ccc(NC(=O)OCc2cc(F)c3c(c2)C(=O)N(C2CCC(=O)NC2=O)C3)cc1Cl` (centres unmarked) [Compound 503], the IC50 is above 1900 nM.

For the compound `O=C1CCC(N2Cc3c(F)cc(COC(=O)Nc4cc(F)cc(OC(F)(F)F)c4)cc3C2=O)C(=O)N1` (centres unmarked) [Compound 512], the IC50 is above 1900 nM.

Consider `O=C1CCC(N2Cc3c(F)cc(COC(=O)Nc4ccc(-c5ccccn5)cc4)cc3C2=O)C(=O)N1` (centres unmarked) [Compound 511], for which the IC50 is at most 600 nM.

For the compound `COc1cc(COC(=O)Nc2cccc(C(C)(C)C)c2)cc2c1CN(C1CCC(=O)NC1=O)C2=O` (centres unmarked) [Compound 554], the half-maximal inhibitory concentration (IC50) was at most 600 nM.

Turning to `COc1cc(COC(=O)Nc2ccc3c(c2)OCC3(C)C)cc2c1CN(C1CCC(=O)NC1=O)C2=O` (centres unmarked) [Compound 537], the IC50 is at most 600 nM.

On to `CC(C)(C)c1cccc(NC(=O)OCc2cc(F)c3c(c2)C(=O)N(C2CCC(=O)NC2=O)C3)c1` (centres unmarked) [Compound 525], for which the IC50 is above 1900 nM.

Regarding `O=C1CCC(N2Cc3c(F)cc(COC(=O)Nc4cc(-c5ccccc5)ccn4)cc3C2=O)C(=O)N1` (centres unmarked) [Compound 524], the IC50 was above 1900 nM.

As to `O=C1CCC(N2Cc3c(F)cc(COC(=O)Nc4cc(F)cc(OC(F)F)c4)cc3C2=O)C(=O)N1` (centres unmarked) [Compound 506], the IC50 is above 1900 nM.

`Cc1ccc(NC(=O)OCc2cc(F)c3c(c2)C(=O)N(C2CCC(=O)NC2=O)C3)cc1OC(F)F` (centres unmarked) [Compound 535]: the IC50 is above 1900 nM.

In the case of `Cc1ccc(NC(=O)OCc2ccc3c(c2F)C(=O)N(C2CCC(=O)NC2=O)C3)cc1Cl` (centres unmarked) [Compound 571], the IC50 is above 1900 nM.

With `Cc1ccc(NC(=O)OCc2cc(Br)c3c(c2)C(=O)N(C2CCC(=O)NC2=O)C3)cc1Cl` (centres unmarked) [Compound 501], the IC50 was above 1900 nM.

On to `COc1cc(COC(=O)Nc2ccc(C(C)(C)C)nc2)cc2c1CN(C1CCC(=O)NC1=O)C2=O` (centres unmarked) [Compound 544], for which the IC50 is at most 600 nM.

Regarding `COc1cc(COC(=O)Nc2cccc(OC(F)F)c2)cc2c1CN(C1CCC(=O)NC1=O)C2=O` (centres unmarked) [Compound 553], the IC50 is at most 600 nM.

Regarding `O=C1CCC(N2Cc3c(F)cc(COC(=O)Nc4cccc(OC(F)(F)F)c4)cc3C2=O)C(=O)N1` (centres unmarked) [Compound 515], the IC50 is above 1900 nM.

Consider `O=C1CCC(N2Cc3c(F)cc(COC(=O)Nc4ccc(-c5ccccc5)nc4)cc3C2=O)C(=O)N1` (centres unmarked) [Compound 508], for which the IC50 was above 1900 nM.

For the compound `O=C1CCC(N2Cc3c(F)cc(COC(=O)Nc4cc(Cl)cc(Cl)c4)cc3C2=O)C(=O)N1` (centres unmarked) [Compound 528], the IC50 is above 1900 nM.

Regarding `COc1cc(COC(=O)Nc2ccc(-c3ccccc3C)nc2)cc2c1CN(C1CCC(=O)NC1=O)C2=O` (centres unmarked) [Compound 560], the IC50 is at most 600 nM.

For the compound `Cc1ccc(NC(=O)OCc2cc(C#N)c3c(c2)C(=O)N(C2CCC(=O)NC2=O)C3)cc1Cl` (centres unmarked) [Compound 502], the IC50 is above 1900 nM.

Still in this assay, the particulars now being: bound stated; read-out: IC50 value.
For `COc1ccccc1CNC(=O)OCc1ccc2c(c1)C(=O)N(C1CCC(=O)NC1=O)C2` (centres unmarked) [Compound 297], the IC50 is below 1100 nM.

For `CC1COc2cc(NC(=O)OCc3ccc4c(c3)C(=O)N(C3CCC(=O)NC3=O)C4)ccc21` (centres unmarked) [Compound 303], the IC50 is below 1100 nM.

The assay is the same for the next values; noted with them: bounds stated; read-out: IC50 value.
With `O=C1CCC(N2Cc3ccc(CNC(=O)Nc4ccc(F)c(Cl)c4)cc3C2=O)C(=O)N1` (centres unmarked) [Compound 42], the IC50 was below 600 nM.

Turning to `CCc1ccc(NC(=O)NCc2ccc3c(c2)C(=O)N(C2CCC(=O)NC2=O)C3)cc1` (centres unmarked) [Compound 18], the IC50 is below 600 nM.

Turning to `O=C1CCC(N2Cc3ccc(CNC(=O)Nc4cc(Cl)cc(Cl)c4)cc3C2=O)C(=O)N1` (centres unmarked) [Compound 38], the IC50 is below 600 nM.

As to `O=C1CCC(N2Cc3ccc(CNC(=O)Nc4cccc(Cl)c4Cl)cc3C2=O)C(=O)N1` (centres unmarked) [Compound 50], the half-inhibitory concentration (IC50) was below 600 nM.

With `O=C1CCC(N2Cc3ccc(CNC(=O)Nc4ccccc4C(F)(F)F)cc3C2=O)C(=O)N1` (centres unmarked) [Compound 49], the IC50 was below 600 nM.

For `CC(C)c1ccc(NC(=O)NCc2ccc3c(c2)C(=O)N(C2CCC(=O)NC2=O)C3)cc1` (centres unmarked) [Compound 57], the IC50 was below 600 nM.

For the compound `CCc1ccccc1NC(=O)NCc1ccc2c(c1)C(=O)N(C1CCC(=O)NC1=O)C2` (centres unmarked) [Compound 36], the IC50 was below 600 nM.

`Cc1ccc(NC(=O)NCc2ccc3c(c2)C(=O)N(C2CCC(=O)NC2=O)C3)cc1` (centres unmarked) [Compound 21]: the concentration for half-maximal inhibition (IC50) was below 600 nM.

In the case of `Cc1cccc(NC(=O)NCc2ccc3c(c2)C(=O)N(C2CCC(=O)NC2=O)C3)c1C` (centres unmarked) [Compound 44], the IC50 is below 600 nM.

Take `O=C1CCC(N2Cc3ccc(CNC(=O)NCC4CC4)cc3C2=O)C(=O)N1` (centres unmarked) [Compound 26]: the IC50 was below 600 nM.

On to `Cc1ccc(F)cc1NC(=O)NCc1ccc2c(c1)C(=O)N(C1CCC(=O)NC1=O)C2` (centres unmarked) [Compound 62], for which the IC50 is below 600 nM.

Consider `COc1ccc(NC(=O)NCc2ccc3c(c2)C(=O)N(C2CCC(=O)NC2=O)C3)c(C)c1` (centres unmarked) [Compound 23], for which the IC50 was below 600 nM.

Regarding `COc1ccccc1NC(=O)NCc1ccc2c(c1)C(=O)N(C1CCC(=O)NC1=O)C2` (centres unmarked) [Compound 7], the IC50 was below 600 nM.

Take `O=C1CCC(N2Cc3ccc(CNC(=O)NC4CCCc5ccccc54)cc3C2=O)C(=O)N1` (centres unmarked) [Compound 40]: the IC50 was below 600 nM.

Take `COc1ccc(NC(=O)NCc2ccc3c(c2)C(=O)N(C2CCC(=O)NC2=O)C3)cc1` (centres unmarked) [Compound 5]: the IC50 is below 600 nM.

Turning to `COc1cccc(CNC(=O)NCc2ccc3c(c2)C(=O)N(C2CCC(=O)NC2=O)C3)c1` (centres unmarked) [Compound 53], the IC50 is below 600 nM.

For the compound `C[C@@H](NC(=O)NCc1ccc2c(c1)C(=O)N(C1CCC(=O)NC1=O)C2)c1ccccc1` (some centres unmarked) [Compound 54], the IC50 is below 600 nM.

Consider `Cc1ccccc1NC(=O)NCc1ccc2c(c1)C(=O)N(C1CCC(=O)NC1=O)C2` (centres unmarked) [Compound 37], for which the IC50 is below 600 nM.

On to `CC(C)(C)c1ccccc1NC(=O)NCc1ccc2c(c1)C(=O)N(C1CCC(=O)NC1=O)C2` (centres unmarked) [Compound 11], for which the IC50 is below 600 nM.

For the compound `CC(C)(C)c1ccc(NC(=O)NCc2ccc3c(c2)C(=O)N(C2CCC(=O)NC2=O)C3)cc1` (centres unmarked) [Compound 56], the IC50 was below 600 nM.

Turning to `Cc1c(Cl)cccc1NC(=O)NCc1ccc2c(c1)C(=O)N(C1CCC(=O)NC1=O)C2` (centres unmarked) [Compound 19], the IC50 was below 600 nM.

Turning to `COc1ccc(CNC(=O)NCc2ccc3c(c2)C(=O)N(C2CCC(=O)NC2=O)C3)cc1` (centres unmarked) [Compound 52], the IC50 is below 600 nM.

For the compound `O=C1CCC(N2Cc3ccc(CNC(=O)Nc4ccc(C(F)(F)F)cc4)cc3C2=O)C(=O)N1` (centres unmarked) [Compound 41], the IC50 is below 600 nM.

On to `CCOc1ccc(NC(=O)NCc2ccc3c(c2)C(=O)N(C2CCC(=O)NC2=O)C3)cc1` (centres unmarked) [Compound 16], for which the IC50 is below 600 nM.

For orientation: IC50 means the concentration needed to halve the response being measured.

Values taken from US20240261274A1, “TREATMENT OF MYC-DRIVEN CANCERS WITH GSPT1 DEGRADERS” (MONTE ROSA THERAPEUTICS, INC., priority 2021, published 2024).
